From US9452986B2, “6-heteroaryloxy- or 6-aryloxy-quinoline-2-carboxamides and method of use” (AbbVie Inc., priority 2014, dated 2016)
Read-outs that look alike come from different tables or passages of the source.

Assays:
osteoarthritic rats = experiment: Osteoarthritic (OA) pain induced by sodium monoiodoacetate (MIA), hind limb grip force; assay type: in vivo, rat; settings: rat, 20 days following MIA injection, hind limb grip force; for inhibition in vivo at 10 mg/kg / inhibition in vivo at 30 mg/kg: Rattus norvegicus, 480 h, read-out: OA MPE
How it was run: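 Male Sprague Dawley rats (150-175 g) received a single unilateral intra-articular knee injection of MIA (3 mg/rat) and were tested 20 days later. Peak hind limb grip force (CFmax, g force/kg body weight, mean of two trials) was scored blinded. % effect set vehicle as 0% and age-matched naïve rats as 100%.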

recombinant human Nav1.7 = recombinant human Nav1.7 (Homo sapiens (Human), UniProt Q15858); experiment: FRET-based membrane potential assay, recombinant human sodium channel Nav1.7; assay type: cell-based; settings: read-out: FRET-Membrane Potential Nav1.7 IC50
How it was run: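 Channel activation used veratridine at its EC80, set by a dilution curve each experiment, together with Leiurus scorpion venom, added 3 min after compound. Membrane-potential ratio signals from FLIPR Tetra in HEPES-buffered HBSS were fitted to a four-parameter Hill equation for percent inhibition and IC50.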

recombinant human Nav1.8 = recombinant human Nav1.8 (Homo sapiens (Human), UniProt Q9Y5Y9); experiment: FRET-based membrane potential assay, recombinant human sodium channel Nav1.8; assay type: cell-based
[1] = HEK293 cells stably expressing recombinant human Nav1.7, veratridine + scorpion venom depolarization
[2] = HEK293 cells stably expressing recombinant human Nav1.8, veratridine + scorpion venom depolarization

Sequence of recombinant human Nav1.8 (Q9Y5Y9 whole entry): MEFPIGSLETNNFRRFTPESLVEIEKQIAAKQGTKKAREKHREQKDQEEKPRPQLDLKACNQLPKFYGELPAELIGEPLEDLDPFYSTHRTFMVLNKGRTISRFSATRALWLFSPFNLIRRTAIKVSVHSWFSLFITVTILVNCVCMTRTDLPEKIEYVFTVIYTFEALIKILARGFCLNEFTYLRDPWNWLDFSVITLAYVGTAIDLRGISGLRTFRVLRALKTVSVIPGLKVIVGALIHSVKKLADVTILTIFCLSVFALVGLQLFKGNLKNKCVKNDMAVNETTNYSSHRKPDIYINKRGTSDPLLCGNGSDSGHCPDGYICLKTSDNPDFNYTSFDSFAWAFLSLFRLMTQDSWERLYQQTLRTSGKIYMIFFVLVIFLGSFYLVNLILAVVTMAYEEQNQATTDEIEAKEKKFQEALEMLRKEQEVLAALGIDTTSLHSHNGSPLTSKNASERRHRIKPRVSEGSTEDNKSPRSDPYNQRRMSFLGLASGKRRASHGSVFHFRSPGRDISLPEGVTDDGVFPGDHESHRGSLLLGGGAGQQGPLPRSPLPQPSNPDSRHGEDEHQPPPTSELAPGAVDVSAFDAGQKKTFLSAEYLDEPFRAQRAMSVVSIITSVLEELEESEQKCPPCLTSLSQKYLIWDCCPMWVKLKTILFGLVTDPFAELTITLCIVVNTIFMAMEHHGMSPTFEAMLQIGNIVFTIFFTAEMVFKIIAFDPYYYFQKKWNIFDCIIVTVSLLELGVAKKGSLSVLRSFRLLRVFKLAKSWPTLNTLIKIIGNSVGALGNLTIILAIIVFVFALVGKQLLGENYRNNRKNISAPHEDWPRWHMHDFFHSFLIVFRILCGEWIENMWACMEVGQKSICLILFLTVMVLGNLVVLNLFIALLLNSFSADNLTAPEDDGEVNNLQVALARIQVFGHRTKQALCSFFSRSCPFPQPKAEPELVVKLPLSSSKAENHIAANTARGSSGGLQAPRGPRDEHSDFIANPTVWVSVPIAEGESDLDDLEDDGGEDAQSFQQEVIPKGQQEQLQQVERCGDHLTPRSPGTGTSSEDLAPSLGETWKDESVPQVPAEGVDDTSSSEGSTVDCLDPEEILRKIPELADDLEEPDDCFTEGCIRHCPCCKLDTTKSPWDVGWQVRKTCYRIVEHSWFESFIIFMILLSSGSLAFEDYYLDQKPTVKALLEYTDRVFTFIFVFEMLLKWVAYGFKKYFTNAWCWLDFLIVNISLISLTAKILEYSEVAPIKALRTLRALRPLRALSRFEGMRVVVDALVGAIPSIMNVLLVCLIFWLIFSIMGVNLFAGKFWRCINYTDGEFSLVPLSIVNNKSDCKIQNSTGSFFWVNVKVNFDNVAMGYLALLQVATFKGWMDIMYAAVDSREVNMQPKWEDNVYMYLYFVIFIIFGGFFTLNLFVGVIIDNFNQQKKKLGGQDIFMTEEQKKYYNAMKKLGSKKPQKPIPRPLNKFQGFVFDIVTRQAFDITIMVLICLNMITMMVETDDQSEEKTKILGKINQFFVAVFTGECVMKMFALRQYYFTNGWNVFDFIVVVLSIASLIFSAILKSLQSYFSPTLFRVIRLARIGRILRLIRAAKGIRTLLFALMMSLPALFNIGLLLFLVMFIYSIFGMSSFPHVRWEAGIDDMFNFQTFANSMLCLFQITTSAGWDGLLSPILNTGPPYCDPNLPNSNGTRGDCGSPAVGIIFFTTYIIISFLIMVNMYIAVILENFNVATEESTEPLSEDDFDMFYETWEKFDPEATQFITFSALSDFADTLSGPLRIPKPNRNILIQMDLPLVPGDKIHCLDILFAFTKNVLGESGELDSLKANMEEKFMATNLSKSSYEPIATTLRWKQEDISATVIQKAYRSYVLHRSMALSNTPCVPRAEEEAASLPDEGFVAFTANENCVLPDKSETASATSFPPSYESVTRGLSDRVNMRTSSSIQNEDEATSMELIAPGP
Sequence of recombinant human Nav1.7 (Q15858 whole entry): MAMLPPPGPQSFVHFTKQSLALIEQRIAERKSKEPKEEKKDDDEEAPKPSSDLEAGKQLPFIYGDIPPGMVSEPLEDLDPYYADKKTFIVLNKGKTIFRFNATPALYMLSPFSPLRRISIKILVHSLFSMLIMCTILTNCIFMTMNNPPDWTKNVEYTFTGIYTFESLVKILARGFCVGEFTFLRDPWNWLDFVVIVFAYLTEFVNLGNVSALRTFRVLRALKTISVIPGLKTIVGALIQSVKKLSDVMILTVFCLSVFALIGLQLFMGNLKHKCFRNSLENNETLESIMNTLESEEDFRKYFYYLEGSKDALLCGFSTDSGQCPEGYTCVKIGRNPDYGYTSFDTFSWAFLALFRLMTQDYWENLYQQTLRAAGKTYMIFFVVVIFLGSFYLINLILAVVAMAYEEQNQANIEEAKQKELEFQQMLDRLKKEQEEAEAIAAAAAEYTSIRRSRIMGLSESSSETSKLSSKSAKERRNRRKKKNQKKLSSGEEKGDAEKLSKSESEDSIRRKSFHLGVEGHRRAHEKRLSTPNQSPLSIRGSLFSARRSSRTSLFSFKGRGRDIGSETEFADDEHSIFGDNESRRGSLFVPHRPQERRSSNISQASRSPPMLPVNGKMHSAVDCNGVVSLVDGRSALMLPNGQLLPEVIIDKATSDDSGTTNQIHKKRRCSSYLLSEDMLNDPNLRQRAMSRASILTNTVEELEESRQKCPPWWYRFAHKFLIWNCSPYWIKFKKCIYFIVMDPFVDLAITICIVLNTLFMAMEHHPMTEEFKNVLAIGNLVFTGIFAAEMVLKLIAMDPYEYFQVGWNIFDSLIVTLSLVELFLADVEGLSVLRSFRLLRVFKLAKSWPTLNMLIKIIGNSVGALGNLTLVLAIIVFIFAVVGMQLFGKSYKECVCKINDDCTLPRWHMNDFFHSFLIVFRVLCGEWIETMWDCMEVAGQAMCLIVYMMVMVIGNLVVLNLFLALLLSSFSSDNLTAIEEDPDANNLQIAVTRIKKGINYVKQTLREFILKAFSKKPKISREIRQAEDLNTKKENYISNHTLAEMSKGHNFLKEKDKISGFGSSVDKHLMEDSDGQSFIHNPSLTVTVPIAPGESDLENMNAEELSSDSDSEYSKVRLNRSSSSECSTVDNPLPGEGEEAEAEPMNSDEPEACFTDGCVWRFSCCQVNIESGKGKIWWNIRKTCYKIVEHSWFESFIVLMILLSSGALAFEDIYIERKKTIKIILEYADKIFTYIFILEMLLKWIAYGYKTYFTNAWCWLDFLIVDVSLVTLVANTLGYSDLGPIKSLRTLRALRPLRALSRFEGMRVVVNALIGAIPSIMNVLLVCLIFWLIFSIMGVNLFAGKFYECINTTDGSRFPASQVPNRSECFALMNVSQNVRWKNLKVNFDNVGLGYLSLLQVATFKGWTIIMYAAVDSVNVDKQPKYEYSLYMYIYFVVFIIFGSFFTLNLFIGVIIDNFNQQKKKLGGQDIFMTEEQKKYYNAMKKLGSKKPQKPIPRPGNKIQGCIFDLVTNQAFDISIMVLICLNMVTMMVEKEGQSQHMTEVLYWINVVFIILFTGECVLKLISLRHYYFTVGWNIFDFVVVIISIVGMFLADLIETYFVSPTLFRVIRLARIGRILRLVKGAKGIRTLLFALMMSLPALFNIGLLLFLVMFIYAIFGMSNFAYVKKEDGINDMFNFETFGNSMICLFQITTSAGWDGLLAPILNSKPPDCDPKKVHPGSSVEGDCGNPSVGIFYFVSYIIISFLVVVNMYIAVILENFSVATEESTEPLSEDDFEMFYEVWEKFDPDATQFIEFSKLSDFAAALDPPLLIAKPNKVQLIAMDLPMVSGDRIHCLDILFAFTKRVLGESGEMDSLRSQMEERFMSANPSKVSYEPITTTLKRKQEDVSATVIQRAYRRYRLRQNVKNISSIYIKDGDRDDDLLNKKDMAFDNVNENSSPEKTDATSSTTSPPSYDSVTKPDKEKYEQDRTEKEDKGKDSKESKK

| Structure (SMILES) | OA MPE (osteoarthritic rats; OA dose 30 mg/kg) | IC50 (recombinant human Nav1.7; [1]) | IC50 (recombinant human Nav1.8; [2]) | inhibition in vivo at 10 mg/kg (osteoarthritic rats; OA dose 10 mg/kg) | IC50 (recombinant human Nav1.8) | inhibition in vivo at 30 mg/kg (osteoarthritic rats; OA dose 30 mg/kg) | IC50 (recombinant human Nav1.7) | OA MPE (osteoarthritic rats; OA dose 10 mg/kg) |
| --- | --- | --- | --- | --- | --- | --- | --- | --- |
| CN1CC(NC(=O)c2ccc3cc(Oc4ccc(C(F)(F)F)cn4)ccc3n2)CC1=O (single isomer, unassigned) [Example 74, N-[(3S*)-1-methyl-5-oxopyrrolidin-3-yl]-6-{[5-(trifluoromethyl)pyridin-2-yl]oxy}quinoline-2-carboxamide] | 69% | 863 nM | 1880 nM | – | – | – | – | – |
| O=C(c1ccc2cc(Oc3ccc(C(F)(F)F)cn3)ccc2n1)N1CC(O)C1 [Example 18, (3-hydroxyazetidin-1-yl)(6-{[5-(trifluoromethyl)pyridin-2-yl]oxy}quinolin-2-yl)methanone] | – | 2200 nM | – | 23% | 5340 nM | – | – | – |
| O=C(c1ccc2cc(Oc3ccc(C(F)(F)F)nc3)ccc2n1)N1CCNCC1 [Example 19, piperazin-1-yl(6-{[6-(trifluoromethyl)pyridin-3-yl]oxy}quinolin-2-yl)methanone] | – | 1260 nM | 3960 nM | – | – | 64% | – | – |
| O=C(c1ccc2cc(Oc3ccc(C(F)(F)F)cn3)ccc2n1)N1CCNC(C(F)(F)F)C1 (stereo not drawn) [Example 20, [3-(trifluoromethyl)piperazin-1-yl](6-{[5-(trifluoromethyl)pyridin-2-yl]oxy}quinolin-2-yl)methanone] | – | 10500 nM | 3230 nM | 24% | – | – | – | – |
| O=C(NC1CCC(F)(F)CC1)c1ccc2cc(Oc3ccc(C(F)(F)F)cn3)ccc2n1 [Example 23, N-(4,4-difluorocyclohexyl)-6-{[5-(trifluoromethyl)pyridin-2-yl]oxy}quinoline-2-carboxamide] | – | 1450 nM | > 20000 nM | – | – | 83% | – | – |
| O=C(c1ccc2cc(Oc3ccc(C(F)(F)F)cn3)ccc2n1)N1CCNCC1C(F)F (stereo not drawn) [Example 25, [2-(difluoromethyl)piperazin-1-yl](6-{[5-(trifluoromethyl)pyridin-2-yl]oxy}quinolin-2-yl)methanone] | – | – | 3830 nM | – | – | 102% | 1750 nM | – |
| O=C(c1ccc2cc(Oc3ccc(C(F)(F)F)cn3)ccc2n1)N1CCN(CCO)CC1 [Example 28, [4-(2-hydroxyethyl)piperazin-1-yl](6-{[5-(trifluoromethyl)pyridin-2-yl]oxy}quinolin-2-yl)methanone] | – | 3060 nM | 4220 nM | 16% | – | – | – | – |
| N[C@@H]1[C@H]2CN(C(=O)c3ccc4cc(Oc5ccc(C(F)(F)F)cn5)ccc4n3)C[C@@H]12 [Example 36, meso-[(1R,5S,6s)-6-amino-3-azabicyclo[3.1.0]hex-3-yl](6-{[5-(trifluoromethyl)pyridin-2-yl]oxy}quinolin-2-yl)methanone] | – | 727 nM | 1420 nM | – | – | – | – | 55% |
| CCN1CC(NC(=O)c2ccc3cc(Oc4ccc(C(F)(F)F)cn4)ccc3n2)CC1=O (stereo not drawn) [Example 45, N-(1-ethyl-5-oxopyrrolidin-3-yl)-6-{[5-(trifluoromethyl)pyridin-2-yl]oxy}quinoline-2-carboxamide] | – | 325 nM | 468 nM | – | – | 17% | – | – |
| CCN1CC(NC(=O)c2ccc3cc(Oc4ccc(C(F)F)cn4)ccc3n2)CC1=O (stereo not drawn) [Example 46, 6-{[5-(difluoromethyl)pyridin-2-yl]oxy}-N-(1-ethyl-5-oxopyrrolidin-3-yl)quinoline-2-carboxamide] | – | 344 nM | 501 nM | – | – | 98% | – | – |
| O=C(c1ccc2cc(Oc3ccc(C(F)(F)F)cn3)ccc2n1)N1CCN(C2CCC2)CC1 [Example 47, (4-cyclobutylpiperazin-1-yl)(6-{[5-(trifluoromethyl)pyridin-2-yl]oxy}quinolin-2-yl)methanone] | – | – | 334 nM | 30% | – | – | 1420 nM | – |
| CC1(NC(=O)c2ccc3cc(Oc4ccc(C(F)(F)F)cn4)ccc3n2)COC1 [Example 48, N-(3-methyloxetan-3-yl)-6-{[5-(trifluoromethyl)pyridin-2-yl]oxy}quinoline-2-carboxamide] | – | 4430 nM | 774 nM | 41% | – | – | – | – |
| N[C@@H]1[C@H]2CN(C(=O)c3ccc4cc(Oc5ccc(C(F)F)cn5)ccc4n3)C[C@@H]12 [Example 49, meso-[(1R,5S,6s)-6-amino-3-azabicyclo[3.1.0]hex-3-yl](6-{[5-(difluoromethyl)pyridin-2-yl]oxy}quinolin-2-yl)methanone] | 58% | 2270 nM | 702 nM | – | – | – | – | – |
| O=C(c1ccc2cc(Oc3ccc(C(F)(F)F)cn3)ccc2n1)N1CCN2CC(F)(F)C[C@H]2C1 [Example 53, [(8aS)-7,7-difluorohexahydropyrrolo[1,2-a]pyrazin-2(1H)-yl](6-{[5-(trifluoromethyl)pyridin-2-yl]oxy}quinolin-2-yl)methanone] | – | 3260 nM | 11000 nM | – | – | 70% | – | – |
| CC[C@@H]1CN(C(=O)c2ccc3cc(Oc4ccc(C(F)F)cn4)ccc3n2)CCN1 [Example 55, (6-{[5-(difluoromethyl)pyridin-2-yl]oxy}quinolin-2-yl)[(3R)-3-ethylpiperazin-1-yl]methanone] | – | 594 nM | – | 42% | 2080 nM | – | – | – |
| COCCNC(=O)c1ccc2cc(Oc3ccc(C(F)(F)F)nc3)ccc2n1 [Example 56, N-(2-methoxyethyl)-6-{[6-(trifluoromethyl)pyridin-3-yl]oxy}quinoline-2-carboxamide] | – | 3010 nM | 1490 nM | 43% | – | – | – | – |
| O=C(c1ccc2cc(Oc3ccc(OC(F)F)cn3)ccc2n1)N1CCNCC1 [Example 57, (6-{[5-(difluoromethoxy)pyridin-2-yl]oxy}quinolin-2-yl)(piperazin-1-yl)methanone] | – | 3190 nM | 870 nM | – | – | 53% | – | – |
| O=C1C[C@@H](NC(=O)c2ccc3cc(Oc4ccc(C(F)(F)F)cn4)ccc3n2)CN1 [Example 58, N-[(3R)-5-oxopyrrolidin-3-yl]-6-{[5-(trifluoromethyl)pyridin-2-yl]oxy}quinoline-2-carboxamide] | – | 1030 nM | 2840 nM | – | – | 64% | – | – |
| CCN1CCC(N(CC)C(=O)c2ccc3cc(Oc4ccc(C(F)(F)F)cn4)ccc3n2)CC1=O (stereo not drawn) [Example 61, N-ethyl-N-(1-ethyl-2-oxopiperidin-4-yl)-6-{[5-(trifluoromethyl)pyridin-2-yl]oxy}quinoline-2-carboxamide] | – | 556 nM | 1140 nM | 61% | – | – | – | – |
| C[C@@H]1CN(C(=O)c2ccc3cc(Oc4ccc(C(F)(F)F)nc4)ccc3n2)CCN1 [Example 62, [(3R)-3-methylpiperazin-1-yl](6-{[6-(trifluoromethyl)pyridin-3-yl]oxy}quinolin-2-yl)methanone] | – | 500 nM | 120 nM | -1% | – | – | – | – |
| COC[C@H]1CN(C(=O)c2ccc3cc(Oc4ccc(C(F)(F)F)nc4)ccc3n2)CCN1 [Example 63, [(3R)-3-(methoxymethyl)piperazin-1-yl](6-{[6-(trifluoromethyl)pyridin-3-yl]oxy}quinolin-2-yl)methanone] | – | 976 nM | – | 15% | 1160 nM | – | – | – |
| COC[C@@H]1CN(C(=O)c2ccc3cc(Oc4ccc(C(F)(F)F)nc4)ccc3n2)CCN1 [Example 64, [(3S)-3-(methoxymethyl)piperazin-1-yl](6-{[6-(trifluoromethyl)pyridin-3-yl]oxy}quinolin-2-yl)methanone] | – | 382 nM | – | 29% | 491 nM | – | – | – |
| CS(=O)(=O)CCCNC(=O)c1ccc2cc(Oc3ccc(C(F)(F)F)cn3)ccc2n1 [Example 65, N-[3-(methylsulfonyl)propyl]-6-{[5-(trifluoromethyl)pyridin-2-yl]oxy}quinoline-2-carboxamide] | – | – | 4230 nM | – | – | 63% | 2250 nM | – |
| NC1CN(C(=O)c2ccc3cc(Oc4ccc(C(F)(F)F)nc4)ccc3n2)C1 [Example 66, (3-amino azetidin-1-yl)(6-{[6-(trifluoromethyl)pyridin-3-yl]oxy}quinolin-2-yl)methanone] | – | 883 nM | – | – | 1180 nM | 52% | – | – |
| CC1CN(C(=O)c2ccc3cc(Oc4ccc(C(F)F)cn4)ccc3n2)CC(C)N1 (stereo not drawn) [Example 67, (6-{[5-(difluoromethyl)pyridin-2-yl]oxy}quinolin-2-yl)(3,5-dimethylpiperazin-1-yl)methanone] | – | 1280 nM | 1750 nM | 43% | – | – | – | – |
| C[C@@H]1CN(C(=O)c2ccc3cc(Oc4ccc(C(F)F)cn4)ccc3n2)CCN1 [Example 68, (6-{[5-(difluoromethyl)pyridin-2-yl]oxy}quinolin-2-yl) [(3R)-3-methylpiperazin-1-yl]methanone] | – | 1210 nM | 1890 nM | 52% | – | – | – | – |
| COC[C@@H]1CN(C(=O)c2ccc3cc(Oc4ccc(C(F)F)cn4)ccc3n2)CCN1 [Example 69, (6-{[5-(difluoromethyl)pyridin-2-yl]oxy}quinolin-2-yl)[(3S)-3-(methoxymethyl)piperazin-1-yl]methanone] | – | 895 nM | 2320 nM | 2% | – | – | – | – |
